According to patent US11242337B2, “Compounds useful for treating gastrointestinal tract disorders” (Ardelyx, Inc., priority 2017, dated 2022):

Key:
NHE3 [1] = target: T1, NHE3 (Homo sapiens, UniProt P48764); test: Cell-based assay of NHE-3 activity (persistent inhibition), human; conditions: human Persistence, 60 min incubation then washout
T1 construct: expressed in transfected cells
T1 sequence (P48764 26-834): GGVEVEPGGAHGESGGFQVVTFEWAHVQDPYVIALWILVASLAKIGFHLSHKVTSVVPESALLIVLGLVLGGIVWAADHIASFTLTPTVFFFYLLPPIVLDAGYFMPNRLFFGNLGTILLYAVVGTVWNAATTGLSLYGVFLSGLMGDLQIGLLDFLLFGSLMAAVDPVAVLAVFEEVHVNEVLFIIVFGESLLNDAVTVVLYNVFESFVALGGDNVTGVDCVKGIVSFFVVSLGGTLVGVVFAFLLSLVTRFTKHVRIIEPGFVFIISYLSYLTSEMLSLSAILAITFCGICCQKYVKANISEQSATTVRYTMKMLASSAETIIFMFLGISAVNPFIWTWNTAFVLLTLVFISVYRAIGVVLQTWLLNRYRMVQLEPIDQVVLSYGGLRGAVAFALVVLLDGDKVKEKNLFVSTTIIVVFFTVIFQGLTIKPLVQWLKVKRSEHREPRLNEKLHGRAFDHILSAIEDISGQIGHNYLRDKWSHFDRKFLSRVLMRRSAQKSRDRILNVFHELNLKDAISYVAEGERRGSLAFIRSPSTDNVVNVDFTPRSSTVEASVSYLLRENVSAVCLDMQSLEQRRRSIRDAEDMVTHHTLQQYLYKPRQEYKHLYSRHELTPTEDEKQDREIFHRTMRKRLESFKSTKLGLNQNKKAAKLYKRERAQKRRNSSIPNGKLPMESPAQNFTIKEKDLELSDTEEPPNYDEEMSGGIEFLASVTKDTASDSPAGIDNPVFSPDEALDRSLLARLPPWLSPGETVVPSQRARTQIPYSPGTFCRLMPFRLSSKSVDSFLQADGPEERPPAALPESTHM
T1 sequence (Q99653 2-195 partner limits assumed): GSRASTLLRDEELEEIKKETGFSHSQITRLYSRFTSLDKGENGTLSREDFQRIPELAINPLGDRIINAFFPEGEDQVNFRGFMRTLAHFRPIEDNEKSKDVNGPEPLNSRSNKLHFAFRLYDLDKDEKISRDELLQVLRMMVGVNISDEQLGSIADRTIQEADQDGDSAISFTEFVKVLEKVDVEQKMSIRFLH
In short: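 PS120 fibroblasts expressing human NHE3 with NHERF2 exposed to 0-30 μM compound for 60 min at RT, then washed out; cells acid-loaded by NH4Cl prepulse with BCECF-AM and Na+-free buffer. Na+-driven pH recovery started 10 min post-washout; initial rate of BCECF ratio change (FLIPR) taken as activity.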

NHE3 [2] = target: T1, NHE3; test: Cell-based assay of NHE-3 activity (pre-incubation inhibition), human; conditions: human Preincubation; for pIC50: 0-30 μM test compound
In short: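 PS120 fibroblasts stably expressing human NHE3 and NHERF2, loaded 30 min at 37 °C with 5 μM BCECF-AM in NH4Cl buffer, then acidified 10 min at room temperature in Na+-free buffer with 0–30 μM compound. Initial rate of BCECF fluorescence ratio change (FLIPR) per minute taken as Na+/H+ activity.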

SMILES | % inhibition (NHE3 [1]) | % inhibition (NHE3 [2]) | pIC50 (NHE3 [1]) | pIC50 (NHE3 [2])
Cc1cc(Cl)cc2c1C[C@H](N1CCC[C@@H](N)C1)[C@H]2Oc1ccc(S(=O)(=O)NCCOCCOCCNC(=O)NCCCCNC(=O)NCCOCCOCCNS(=O)(=O)c2ccc(O[C@H]3c4cc(Cl)cc(C)c4C[C@@H]3N3CCC[C@@H](N)C3)c(F)c2)cc1F [Example 10, 3-[2-(2-[2-[(4-[[(1S,2S)-2-[(3R)-3-Aminopiperidin-1-yl]-6-chloro-4-methyl-2,3-dihydro-1H-inden-1-yl]oxy]-3-fluorobenzene)sulfonamido]ethoxy]ethoxy)ethyl]-1-[4-[[(2-(2-[2-[(4-[[(1S,2S)-2-[(3R)-3-aminopiperidin-1-yl]-6-chloro-4-methyl-2,3-dihydro-1H-inden-1-yl]oxy]-3-fluorobenzene)sulfonamido]ethoxy]ethoxy)ethyl]carbamoyl]amino)butyl]urea; bis(trifluoroacetic acid)] | C (>70%) | B (40-70%) |  | 
C[C@@H]1CN([C@H]2Cc3c(C#N)cc(Cl)cc3[C@@H]2Oc2ccc(S(=O)(=O)N[C@H]3CCN(CCOCCNC(=O)NCCCCNC(=O)NCCOCCN4CC[C@H](NS(=O)(=O)c5ccc(O[C@H]6c7cc(Cl)cc(C#N)c7C[C@@H]6N6C[C@@H](C)N[C@@H](C)C6)cc5)C4)C3)cc2)C[C@H](C)N1 [Example 136] | C (>70%) | C (>70%) | C (NHE3 pIC50 > 7) | C (NHE3 pIC50 > 7)
CC(=O)N1CCN([C@H]2Cc3c(Cl)cc(Cl)cc3[C@@H]2Oc2ccc(S(=O)(=O)NCCOCCOCCNC(=O)NCCCCNC(=O)NCCOCCOCCNS(=O)(=O)c3ccc(O[C@H]4c5cc(Cl)cc(Cl)c5C[C@@H]4N4CCN(C(C)=O)CC4)cc3)cc2)CC1 [Example 74, 3-[2-(2-[2-[(4-[[(1S,2S)-2-(4-Acetylpiperazin-1-yl)-4,6-dichloro-2,3-dihydro-1H-inden-1-yl]oxy]benzene)sulfonamido]ethoxy]ethoxy)ethyl]-1-[4-([[2-(2-[2-[(4-[[(1S,2S)-2-(4-acetylpiperazin-1-yl)-4,6-dichloro-2,3-dihydro-1H-inden-1-yl]oxy]benzene)sulfonamido]ethoxy]ethoxy)ethyl]carbamoyl]amino)butyl]urea] | A (NHE3 < 40%) | C (>70%) | A (NHE3 pIC50 < 6) | A (NHE3 pIC50 < 6)
Cc1cc(S(=O)(=O)N[C@@H]2CCN(CCOCCNC(=O)NCCCCNC(=O)NCCOCCN3CC[C@@H](NS(=O)(=O)c4ccc(O[C@H]5c6cc(Cl)cc(C)c6C[C@@H]5N5CCC[C@@H](N(C)C)C5)c(C)c4)C3)C2)ccc1O[C@H]1c2cc(Cl)cc(C)c2C[C@@H]1N1CCC[C@@H](N(C)C)C1 [Example 113, 4-([(1S,2S)-6-Chloro-2-[(R)-3-(dimethylamino)piperidin-1-yl]-4-methyl-2,3-dihydro-1H-inden-1-yl]oxy)-N—[(R)-1-(20-[(R)-3-([4-([(1S,2S)-6-chloro-2-[(R)-3-(dimethylamino)piperidin-1-yl]-4-methyl-2,3-dihydro-1H-inden-1-yl]oxy)-3-methylphenyl]sulfonamido)pyrrolidin-1-yl]-7,14-dioxo-3,18-dioxa-6,8,13,15-tetraazaicosyl)pyrrolidin-3-yl]-3-methylbenzenesulfonamide; tetra(trifluoroacetate)] | C (>70%) | C (>70%) | C (NHE3 pIC50 > 7) | C (NHE3 pIC50 > 7)
N#Cc1cc(Cl)cc2c1C[C@H](N1CCC[C@@H](N)C1)[C@H]2Oc1ccc(S(=O)(=O)NCCOCCOCCNC(=O)NCCCCNC(=O)NCCOCCOCCNS(=O)(=O)c2ccc(O[C@H]3c4cc(Cl)cc(C#N)c4C[C@@H]3N3CCC[C@@H](N)C3)cc2)cc1 [Example 4, 3-[2-(2-[2-[(4-[[(1S,2S)-2-[(3R)-3-Aminopiperidin-1-yl]-6-chloro-4-cyano-2,3-dihydro-1H-inden-1-yl]oxy]benzene)sulfonamido]ethoxy]ethoxy)ethyl]-1-[4-([[2-(2-[2-[(4-[[(1S,2)-2-[(3R)-3-aminopiperidin-1-yl]-6-chloro-4-cyano-2,3-dihydro-1H-inden-1-yl]oxy]benzene)sulfonamido]ethoxy]ethoxy)ethyl]carbamoyl]amino)butyl]urea; bis(trifluoroacetic acid)] | B (40-70%) | B (40-70%) |  | 
CN(C)[C@H]1Cc2c(Cl)cc(Cl)cc2[C@@H]1Oc1ccc(S(=O)(=O)N[C@H]2CCN(CCOCCNC(=O)NCCCCNC(=O)NCCOCCN3CC[C@H](NS(=O)(=O)c4ccc(O[C@H]5c6cc(Cl)cc(Cl)c6C[C@@H]5N(C)C)c(F)c4)C3)C2)cc1F [Example 111, 4-([(1S,2S)-4,6-Dichloro-2-(dimethylamino)-2,3-dihydro-1H-inden-1-yl]oxy)-N—[(S)-1-(20-[(S)-3-([4-([(1S,2S)-4,6-dichloro-2-(dimethylamino)-2,3-dihydro-1H-inden-1-yl]oxy)-3-fluorophenyl]sulfonamido)pyrrolidin-1-yl]-7,14-dioxo-3,18-dioxa-6,8,13,15-tetraazaicosyl)pyrrolidin-3-yl)-3-fluorobenzenesulfonamide; tetra(trifluoroacetate)] | C (>70%) | C (>70%) | C (NHE3 pIC50 > 7) | C (NHE3 pIC50 > 7)
COc1cc(Cl)cc2c1C[C@H](N1CCC[C@@H](N)C1)[C@H]2Oc1ccc(S(=O)(=O)NCCOCCOCCNC(=O)NCCCCNC(=O)NCCOCCOCCNS(=O)(=O)c2ccc(O[C@H]3c4cc(Cl)cc(OC)c4C[C@@H]3N3CCC[C@@H](N)C3)cc2)cc1 [Example 5, 3-[2-(2-[2-[(4-[[(1S,2S)-2-[(3R)-3-Aminopiperidin-1 yl]-6-chloro-4-methoxy-2,3-dihydro-1H-inden-1-yl]oxy]benzene)sulfonamido]ethoxy]ethoxy)ethyl]-1-[4-[[(2-(2-[2-[(4-[[(1S,2S)-2-[(3R)-3-aminopiperidin-1-yl]-6-chloro-4-methoxy-2,3-dihydro-1H-inden-1-yl]oxy]benzene)sulfonamido]ethoxy]ethoxy)ethyl]carbamoyl]amino)butyl]urea; bis(trifluoroacetic acid)] | C (>70%) | B (40-70%) |  | 
Cc1cc(O[C@H]2c3cc(Cl)cc(Cl)c3C[C@@H]2N2CCC[C@@H](N)C2)ccc1S(=O)(=O)NCCOCCOCCNC(=O)NCCCCNC(=O)NCCOCCOCCNS(=O)(=O)c1ccc(O[C@H]2c3cc(Cl)cc(Cl)c3C[C@@H]2N2CCC[C@@H](N)C2)cc1C [Example 102, 3-[2-(2-[2-[(4-[[(1S,2S)-2-[(3R)-3-Aminopiperidin-1-yl]-4,6-dichloro-2,3-dihydro-1H-inden-1-yl]oxy]-2-methylbenzene)sulfonamido]ethoxy]ethoxy)ethyl]-1-[4-([[2-(2-[2-[(4-[[(1S,2S)-2-[(3R)-3-aminopiperidin-1-yl]-4,6-dichloro-2,3-dihydro-1H-inden-1-yl]oxy]-2-methylbenzene)sulfonamido]ethoxy]ethoxy)ethyl]carbamoyl]amino)butyl]urea] | C (>70%) | C (>70%) | C (NHE3 pIC50 > 7) | C (NHE3 pIC50 > 7)
